From PubChem BioAssay (NCI)
Where “and” joins values, the source holds several entries; their conditions need not be identical. Equal values may be shown once.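 Exposure lasted 48 hours, with cells grown in 96-well plates and compounds tested at five concentrations. GI50 = concentration required for 50% inhibition of growth. The concentration for full growth arrest is given as TGI.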

Key:
Assay in all cases: inhibition of tumour cell growth, NCI panel, 48 h
HCC-2998 colon = tested on: HCC-2998 colon
K-562 leukemia = tested on: K-562 leukemia
SK-MEL-28 melanoma = tested on: SK-MEL-28 melanoma
UO-31 renal = tested on: UO-31 renal
MCF7 breast = tested on: MCF7 breast
HCT-116 colon = tested on: HCT-116 colon
CCRF-CEM leukemia = tested on: CCRF-CEM leukemia
SR leukemia = tested on: SR leukemia
SNB-19 CNS = tested on: SNB-19 CNS
OVCAR-5 ovarian = tested on: OVCAR-5 ovarian

## Cc1cn(C2CC(N(O)Cc3ccccc3)C(CO[Si](C)(C)C(C)(C)C)O2)c(=O)[nH]c1=O (centres undefined)
HCC-2998 colon
  TGI: 41.7 µM and 34.3 µM
K-562 leukemia
  TGI: > 100 µM
SK-MEL-28 melanoma
  GI50: 37.5 µM and 16.9 µM
  TGI: > 100 µM and 30.8 µM
UO-31 renal
  GI50: 32.6 µM and 12.3 µM
  TGI: > 100 µM and 24.9 µM
MCF7 breast
  TGI: > 100 µM and 35.1 µM
HCT-116 colon
  TGI: 34.8 µM and 29.7 µM
CCRF-CEM leukemia
  TGI: > 100 µM
SR leukemia
  TGI: 89.4 µM
SNB-19 CNS
  TGI: > 100 µM and 33.2 µM
OVCAR-5 ovarian
  TGI: 42.8 µM and 32.7 µM

## O=Cc1ccc(OCc2cccc(COc3ccc(/C=N\Nc4ccc([N+](=O)[O-])cc4[N+](=O)[O-])cc3)n2)cc1
HCC-2998 colon
  TGI: > 100 µM
K-562 leukemia
  TGI: > 100 µM
SK-MEL-28 melanoma
  TGI: > 100 µM
UO-31 renal
  TGI: > 100 µM
MCF7 breast
  TGI: > 100 µM
HCT-116 colon
  TGI: > 100 µM
CCRF-CEM leukemia
  TGI: > 100 µM
SR leukemia
  TGI: 75.3 µM
SNB-19 CNS
  TGI: > 100 µM
OVCAR-5 ovarian
  TGI: > 100 µM

## CCOC(=O)/C=C(/C(=O)OCC)n1ccc(=O)n(Cc2cn(COCCOC(C)=O)nn2)c1=O
HCC-2998 colon
  TGI: 36.2 µM
K-562 leukemia
  TGI: > 100 µM
SK-MEL-28 melanoma
  TGI: 35.1 µM
UO-31 renal
  TGI: 31.9 µM
MCF7 breast
  TGI: 28.3 µM
HCT-116 colon
  TGI: 80.8 µM
CCRF-CEM leukemia
  TGI: 4.8 µM
SR leukemia
  TGI: 52.6 µM
SNB-19 CNS
  TGI: > 100 µM
OVCAR-5 ovarian
  TGI: 35.2 µM

## CON(C)C(=O)CNC(=O)OCC1c2ccccc2-c2ccccc21
HCC-2998 colon
  TGI: > 100 µM
K-562 leukemia
  TGI: > 100 µM
SK-MEL-28 melanoma
  TGI: > 100 µM
UO-31 renal
  TGI: > 100 µM
MCF7 breast
  TGI: > 100 µM
HCT-116 colon
  TGI: > 100 µM
CCRF-CEM leukemia
  TGI: > 100 µM
SR leukemia
  TGI: 69.6 µM
SNB-19 CNS
  TGI: > 100 µM
OVCAR-5 ovarian
  TGI: > 100 µM

## CSc1ccc2c(cc1=O)[C@@H](NC(=O)c1ccc(N)cc1)CCc1cc(O)c(O)c(O)c1-2
HCC-2998 colon
  TGI: 32.9 µM and 37.3 µM
K-562 leukemia
  TGI: > 100 µM
SK-MEL-28 melanoma
  TGI: > 100 µM
UO-31 renal
  TGI: 33.8 µM and > 100 µM
MCF7 breast
  GI50: 9.14 µM and 3.83 µM
  TGI: 21.7 µM and > 100 µM
HCT-116 colon
  GI50: 23.8 µM and 11 µM
  TGI: > 100 µM
CCRF-CEM leukemia
  TGI: > 100 µM
SR leukemia
  TGI: > 100 µM
SNB-19 CNS
  TGI: 61 µM and > 100 µM
OVCAR-5 ovarian
  TGI: 66.3 µM and > 100 µM

## COc1cc(C(=O)N(Cc2cccnc2)C(=S)N(Cc2cccnc2)C(=O)c2cc(OC)c(OC)c(OC)c2)cc(OC)c1OC
HCC-2998 colon
  TGI: 62.2 µM
K-562 leukemia
  TGI: > 100 µM
SK-MEL-28 melanoma
  TGI: > 100 µM
UO-31 renal
  TGI: > 100 µM
MCF7 breast
  TGI: 34.9 µM
HCT-116 colon
  TGI: > 100 µM
CCRF-CEM leukemia
  TGI: > 100 µM
SR leukemia
  TGI: > 100 µM
SNB-19 CNS
  TGI: > 100 µM
OVCAR-5 ovarian
  TGI: > 100 µM

## COc1cc(/C=C2/C[C@H]3[C@@H]4CC=C5C[C@@H](O)CC[C@]5(C)[C@H]4CC[C@]3(C)NC2=O)cc(OC)c1OC
HCC-2998 colon
  TGI: 25.8 µM
K-562 leukemia
  TGI: > 100 µM
SK-MEL-28 melanoma
  TGI: > 100 µM
UO-31 renal
  TGI: 29.8 µM
MCF7 breast
  TGI: > 77.5 µM
HCT-116 colon
  TGI: > 66.3 µM
CCRF-CEM leukemia
  TGI: > 100 µM
SR leukemia
  TGI: > 100 µM
SNB-19 CNS
  TGI: > 84.7 µM
OVCAR-5 ovarian
  TGI: > 75.7 µM
